Measured values published in patent US4359458A, “O-β. -D (and O-α.. -D) Multigalactopyranosyl, xylopyranosyl and glucopyranosyl sulfate salts” (American Cyanamid Company, priority 1981, dated 1982).
Structures can show the parent of a compound that is named as a salt. Where two headings read alike, the source gives them in different places.

Experiments:
[1] = system: complement system; conditions: Br. J. Exp. Pathol. 33: 327 (1952); cited from earlier work
[2] = system: hereditary angioneurotic edema; conditions: literature reports; cited from earlier work
[3] = system: complement activity; assay: Guinea Pig Intraperitoneal Test (GPIP); format: in vivo; conditions: Cavia porcellus, ip, 200 mg/kg i.p.
Excerpt: (§1) An active inhibitor protects C2 from C1 and C4; (ii) Test Code 035 (C3-C9 inhibitor)--This test determines the ability of the late components of human complement (C3-C9) to lyse EAC 142 in the presence of appropriate dilutions of the test compound. An active inhibitor protects EAC 142 from lysis by human C3-C9; (iii) Test Code 036 (C-Shunt inhibitor)--In this test human erythrocytes rendered fragile are lysed in autologous serum via the shunt pathway activated by cobra venom factor in the presence of appropriate dilutions of the test compound. Inhibition of the shunt pathway results in failure of lysis; (iv) Cap 50 Test--Here, appropriate amounts of the test compound are added to a pool of guinea pig serum in vitro, after which the undiluted serum capillary tube assay of U.S. Pat. No. 3,876,376 is run. The concentration of compound inhibiting 50% is reported; and (v) Guinea Pig Intraperitoneal Test (GPIP)--Guinea pigs weighing about 300 g are dosed intraperitoneally (i.p.) with 200 mg/kg of the test compound dissolved in saline and adjusted to pH 7-8. Approximately 0.4 ml blood samples, taken by orbital sinus puncture 30 minutes and one hour after injections, are collected directly into centrifuge tubes; 5 ml blood samples, taken by decapitation 2 hours after injection are collected directly into beakers. The samples are allowed to clot, centrifuged, and the resultant sera are assayed for complement activity using the capillary complement assay. Percent inhibition is calculated by comparison with simultaneous controls. The results of the GPIP appear in Table I together with results of test code 026, 035, 036 and Cap 50.

[4] = target: activated human C1 (Homo sapiens, UniProt P09871); assay: Test Code 026 (C1 inhibitor); format: biochemical; conditions: serial dilution assay, twofold dilutions; higher well number indicates higher activity
Excerpt: as §1

[5] = system: shunt pathway activated by cobra venom factor; assay: Test Code 036 (C-Shunt inhibitor); format: cell-based, human; conditions: serial dilution assay, twofold dilutions; higher well number indicates higher activity; N = Negative
Excerpt: as §1

[6] = system: late components of human complement (C3-C9); assay: Test Code 035 (C3-C9 inhibitor); format: biochemical; conditions: serial dilution assay, twofold dilutions; higher well number indicates higher activity; N = Negative
Excerpt: as §1

[7] = system: total hemolytic complement activity; conditions: both in vitro and in vivo; judged by reduction in total hemolytic complement activity; cited from earlier work

Row | Compound | Cl 026 Wells [4] [Wells] | C-Shunt Inhibition 036 Wells [5] [Wells] | C-Late 035 Wells [6] | further results
1 | heparin |  |  |  | anti-complementary effect [1]: anti-complementary effect
2 | NC[C@H]1CC[C@H](C(=O)O)CC1 [tranexamic acid] |  |  |  | treatment of hereditary angioneurotic edema [2]: used with success
3 | O=S(=O)(O)O[C@@H]1[C@@H](OS(=O)(=O)O)[C@@H](O[C@H]2O[C@H](CO[C@@H]3OC[C@@H](OS(=O)(=O)O)[C@H](OS(=O)(=O)O)[C@H]3OS(=O)(=O)O)[C@@H](OS(=O)(=O)O)[C@H](OS(=O)(=O)O)[C@H]2OS(=O)(=O)O)O[C@H](CO[C@@H]2OC[C@@H](OS(=O)(=O)O)[C@H](OS(=O)(=O)O)[C@H]2OS(=O)(=O)O)[C@H]1OS(=O)(=O)O [drawing 14, Xyl 1β,6 glc 1α,1α' glc 1β,6 xyl, dodecakis (H-sulfate), dodecasodium salt] | 11 | 4 |  | inhibition at 200 mg/kg ([3]; 0.5 h, serum 30 minutes after injection, read-out: In vivo activity (Guinea Pigs) % Inhibition Intraperitoneal, 30 minutes): 57%; inhibition at 200 mg/kg ([3]; 1 h, serum 60 minutes after injection, read-out: In vivo activity (Guinea Pigs) % Inhibition Intraperitoneal, 60 minutes): 69%; inhibition at 200 mg/kg ([3]; 2 h, serum 120 minutes after injection, read-out: In vivo activity (Guinea Pigs) % Inhibition Intraperitoneal, 120 minutes): 78%
4 | Nc1ccc2cc(S(=O)(=O)O)cc(O)c2c1N=Nc1ccc(NC(=O)Nc2ccc(N=Nc3c(N)ccc4cc(S(=O)(=O)O)cc(O)c34)c(S(=O)(=O)O)c2)cc1S(=O)(=O)O [chlorazol fast pink, 3,3'-ureylenebis [6-(2-amino-8-hydroxy-6-sulfo-1-naphthylazo)benzenesulfonic acid], tetrasodium salt] |  |  |  | anti-complementary effect [1]: anti-complementary effect
5 | NCCCCCC(=O)O [epsilon-aminocaproic acid] |  |  |  | treatment of hereditary angioneurotic edema [2]: used with success
6 | O=S(=O)(O)OC[C@H]1O[C@@H](OC[C@H]2O[C@H](O[C@H]3O[C@H](CO[C@@H]4O[C@H](COS(=O)(=O)O)[C@@H](O[C@H]5O[C@H](COS(=O)(=O)O)[C@@H](O[C@H]6O[C@H](COS(=O)(=O)O)[C@@H](OS(=O)(=O)O)[C@H](OS(=O)(=O)O)[C@H]6OS(=O)(=O)O)[C@H](OS(=O)(=O)O)[C@H]5OS(=O)(=O)O)[C@H](OS(=O)(=O)O)[C@H]4OS(=O)(=O)O)[C@@H](OS(=O)(=O)O)[C@H](OS(=O)(=O)O)[C@H]3OS(=O)(=O)O)[C@H](OS(=O)(=O)O)[C@@H](OS(=O)(=O)O)[C@@H]2OS(=O)(=O)O)[C@H](OS(=O)(=O)O)[C@@H](OS(=O)(=O)O)[C@@H]1O[C@H]1O[C@H](COS(=O)(=O)O)[C@@H](O[C@H]2O[C@H](COS(=O)(=O)O)[C@@H](OS(=O)(=O)O)[C@H](OS(=O)(=O)O)[C@H]2OS(=O)(=O)O)[C@H](OS(=O)(=O)O)[C@H]1OS(=O)(=O)O [drawing 17, Glc 1α,4 glc 1α,4 glc 1β,6 glc 1α,1α' glc 1β,6 glc 1α,4 glc 1α,4 glc, hexacosakis (H-sulfate), hexacosasalt with trimethylamine] | 9 | 6 | 1 Wells | 
7 | pentosanpolysulfoester |  |  |  | anticomplementary activity on human serum [7]: anticomplementary activity
8 | O=S(=O)(O)OC[C@H]1O[C@@H](OC[C@H]2O[C@H](O[C@H]3O[C@H](CO[C@@H]4O[C@H](COS(=O)(=O)O)[C@@H](O[C@H]5O[C@H](COS(=O)(=O)O)[C@@H](O[C@H]6O[C@H](COS(=O)(=O)O)[C@@H](O[C@H]7O[C@H](COS(=O)(=O)O)[C@@H](O[C@H]8O[C@H](COS(=O)(=O)O)[C@@H](O[C@H]9O[C@H](COS(=O)(=O)O)[C@@H](O[C@H]%10O[C@H](COS(=O)(=O)O)[C@@H](OS(=O)(=O)O)[C@H](OS(=O)(=O)O)[C@H]%10OS(=O)(=O)O)[C@H](OS(=O)(=O)O)[C@H]9OS(=O)(=O)O)[C@H](OS(=O)(=O)O)[C@H]8OS(=O)(=O)O)[C@H](OS(=O)(=O)O)[C@H]7OS(=O)(=O)O)[C@H](OS(=O)(=O)O)[C@H]6OS(=O)(=O)O)[C@H](OS(=O)(=O)O)[C@H]5OS(=O)(=O)O)[C@H](OS(=O)(=O)O)[C@H]4OS(=O)(=O)O)[C@@H](OS(=O)(=O)O)[C@H](OS(=O)(=O)O)[C@H]3OS(=O)(=O)O)[C@H](OS(=O)(=O)O)[C@@H](OS(=O)(=O)O)[C@@H]2OS(=O)(=O)O)[C@H](OS(=O)(=O)O)[C@@H](OS(=O)(=O)O)[C@@H]1O[C@H]1O[C@H](COS(=O)(=O)O)[C@@H](O[C@H]2O[C@H](COS(=O)(=O)O)[C@@H](O[C@H]3O[C@H](COS(=O)(=O)O)[C@@H](O[C@H]4O[C@H](COS(=O)(=O)O)[C@@H](O[C@H]5O[C@H](COS(=O)(=O)O)[C@@H](O[C@H]6O[C@H](COS(=O)(=O)O)[C@@H](OS(=O)(=O)O)[C@H](OS(=O)(=O)O)[C@H]6OS(=O)(=O)O)[C@H](OS(=O)(=O)O)[C@H]5OS(=O)(=O)O)[C@H](OS(=O)(=O)O)[C@H]4OS(=O)(=O)O)[C@H](OS(=O)(=O)O)[C@H]3OS(=O)(=O)O)[C@H](OS(=O)(=O)O)[C@H]2OS(=O)(=O)O)[C@H](OS(=O)(=O)O)[C@H]1OS(=O)(=O)O [drawing 21, Glc 1α,4 (glc 1α,4)5 glc 1β,6 glc 1α,1α'glc 1β,6 glc (glc 1α,4)5 1α,4 glc, pentacontakis (H-sulfate), pentacontasalt with trimethylamine] | 10 | 5 | N | 
9 | O=S(=O)(O)OC[C@H]1O[C@@H](OC[C@H]2O[C@H](O[C@H]3O[C@H](COS(=O)(=O)O)[C@@H](OS(=O)(=O)O)[C@H](OS(=O)(=O)O)[C@H]3OS(=O)(=O)O)[C@H](OS(=O)(=O)O)[C@@H](OS(=O)(=O)O)[C@@H]2OS(=O)(=O)O)[C@H](OS(=O)(=O)O)[C@@H](OS(=O)(=O)O)[C@@H]1O[C@H]1O[C@H](COS(=O)(=O)O)[C@@H](O[C@H]2O[C@H](COS(=O)(=O)O)[C@@H](O[C@H]3O[C@H](COS(=O)(=O)O)[C@@H](O[C@H]4O[C@H](COS(=O)(=O)O)[C@@H](O[C@H]5O[C@H](COS(=O)(=O)O)[C@@H](O[C@H]6O[C@H](COS(=O)(=O)O)[C@@H](OS(=O)(=O)O)[C@H](OS(=O)(=O)O)[C@H]6OS(=O)(=O)O)[C@H](OS(=O)(=O)O)[C@H]5OS(=O)(=O)O)[C@H](OS(=O)(=O)O)[C@H]4OS(=O)(=O)O)[C@H](OS(=O)(=O)O)[C@H]3OS(=O)(=O)O)[C@H](OS(=O)(=O)O)[C@H]2OS(=O)(=O)O)[C@H](OS(=O)(=O)O)[C@H]1OS(=O)(=O)O [drawing 25, Glc 1α,4 (glc 1α,4)5 glc 1β,6 glc 1α,1α'glc, nonacosakis (H-sulfate), nonacosasalt with trimethylamine] | 9 | 5 | N | 
